Earlier results as cited in patent publication US10640830B2, “Drug selection for non-small cell lung cancer therapy” (NESTEC S.A., priority 2013, dated 2020).
Each block holds one compound with its values, some of them ahead of it.

How the values were obtained:
[1] = in vivo
[2] = early Phase I evaluation
human xenograft models = conditions: dosed orally in human xenograft models

- oral bioavailability [1]: good oral bioavailability
Structure (SMILES): COc1cc2c(Oc3ccc(NC(=O)C4(C(=O)Nc5ccc(F)cc5)CC4)cc3F)ccnc2cc1OCCCN1CCOCC1 [GSK 1363089/XL880]
- CYP450 substrate / inhibitor / inducer (CYP450): CYP450 substrate, but not an inhibitor or inducer

Structure (SMILES): CN(C[C@@H]1COCCO1)S(=O)(=O)Nc1ccc2ccc3ncc(-c4cnn(C)c4)cc3c(=O)c2c1 [MK-2461]
- tolerability [2]: well tolerated

Structure (SMILES): Cn1cc(-c2ccc3nnc(Sc4ccc5ncccc5c4)n3n2)cn1 [SGX523]
- antitumor activity (human xenograft models): potent antitumor activity
- toxicity (human xenograft models): no overt toxicity
